We go through one compound from ChEMBL document CHEMBL2074446, “Contribution of P-glycoprotein to efflux of ramosetron, a 5-HT3 receptor antagonist, across the blood-brain barrier” (J Pharm Pharmacol, 2002).

Assay type in all cases: functional, cell-based
Data set [1] deals with ATP-dependent translocase ABCB1 (Mus musculus, UniProt P06795). Nature of the data set: TP_TRANSPORTER: uptake, not inhibited by Verapamil in MBEC4 cell.
The target of data set [2] is ATP-dependent translocase ABCB1 (Homo sapiens, UniProt P08183). Nature of the data set: TP_TRANSPORTER: uptake in LLC-PK1 cell and LLC-GA5-COL300 cells. The settings on record: pig.
Sequence of ATP-dependent translocase ABCB1 (Homo sapiens, UniProt P08183) (P08183 whole entry): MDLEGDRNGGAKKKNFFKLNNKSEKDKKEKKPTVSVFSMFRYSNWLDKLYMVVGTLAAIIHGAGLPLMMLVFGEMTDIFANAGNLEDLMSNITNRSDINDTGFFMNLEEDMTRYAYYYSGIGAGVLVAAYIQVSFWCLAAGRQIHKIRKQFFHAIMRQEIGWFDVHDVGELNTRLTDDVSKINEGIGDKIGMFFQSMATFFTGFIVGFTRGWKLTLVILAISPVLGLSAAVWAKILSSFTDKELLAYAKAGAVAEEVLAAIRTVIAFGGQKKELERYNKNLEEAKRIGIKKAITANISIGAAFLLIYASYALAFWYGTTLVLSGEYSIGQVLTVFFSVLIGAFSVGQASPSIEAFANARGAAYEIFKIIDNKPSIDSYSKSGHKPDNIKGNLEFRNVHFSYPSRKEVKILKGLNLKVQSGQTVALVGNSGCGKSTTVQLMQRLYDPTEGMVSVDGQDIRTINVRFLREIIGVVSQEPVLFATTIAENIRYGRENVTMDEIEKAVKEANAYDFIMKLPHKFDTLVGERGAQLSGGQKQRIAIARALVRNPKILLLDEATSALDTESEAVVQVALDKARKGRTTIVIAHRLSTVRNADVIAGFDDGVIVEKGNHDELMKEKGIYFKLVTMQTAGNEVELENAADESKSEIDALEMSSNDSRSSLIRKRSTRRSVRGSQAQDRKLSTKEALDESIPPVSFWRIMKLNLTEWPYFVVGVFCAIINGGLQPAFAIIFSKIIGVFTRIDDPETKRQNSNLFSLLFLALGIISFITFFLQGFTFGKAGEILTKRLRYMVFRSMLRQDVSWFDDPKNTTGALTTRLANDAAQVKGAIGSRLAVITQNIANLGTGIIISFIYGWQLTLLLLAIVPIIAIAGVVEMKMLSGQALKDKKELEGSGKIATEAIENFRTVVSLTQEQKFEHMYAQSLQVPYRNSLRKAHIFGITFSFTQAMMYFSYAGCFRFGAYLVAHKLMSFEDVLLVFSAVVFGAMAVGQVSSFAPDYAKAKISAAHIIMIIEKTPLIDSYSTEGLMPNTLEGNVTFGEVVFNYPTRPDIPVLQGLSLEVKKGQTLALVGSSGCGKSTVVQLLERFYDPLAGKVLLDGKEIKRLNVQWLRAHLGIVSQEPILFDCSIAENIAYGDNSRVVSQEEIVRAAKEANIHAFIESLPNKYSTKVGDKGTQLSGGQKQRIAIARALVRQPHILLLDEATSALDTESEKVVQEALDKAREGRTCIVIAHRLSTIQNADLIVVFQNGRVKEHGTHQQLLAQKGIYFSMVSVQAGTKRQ
For data set [3], the target named is ATP-dependent translocase ABCB1 (Mus musculus, UniProt P21447). Description: TP_TRANSPORTER: uptake in L cell and LV500 cell.
Sequence of ATP-dependent translocase ABCB1 (Mus musculus, UniProt P21447) (P21447 whole entry): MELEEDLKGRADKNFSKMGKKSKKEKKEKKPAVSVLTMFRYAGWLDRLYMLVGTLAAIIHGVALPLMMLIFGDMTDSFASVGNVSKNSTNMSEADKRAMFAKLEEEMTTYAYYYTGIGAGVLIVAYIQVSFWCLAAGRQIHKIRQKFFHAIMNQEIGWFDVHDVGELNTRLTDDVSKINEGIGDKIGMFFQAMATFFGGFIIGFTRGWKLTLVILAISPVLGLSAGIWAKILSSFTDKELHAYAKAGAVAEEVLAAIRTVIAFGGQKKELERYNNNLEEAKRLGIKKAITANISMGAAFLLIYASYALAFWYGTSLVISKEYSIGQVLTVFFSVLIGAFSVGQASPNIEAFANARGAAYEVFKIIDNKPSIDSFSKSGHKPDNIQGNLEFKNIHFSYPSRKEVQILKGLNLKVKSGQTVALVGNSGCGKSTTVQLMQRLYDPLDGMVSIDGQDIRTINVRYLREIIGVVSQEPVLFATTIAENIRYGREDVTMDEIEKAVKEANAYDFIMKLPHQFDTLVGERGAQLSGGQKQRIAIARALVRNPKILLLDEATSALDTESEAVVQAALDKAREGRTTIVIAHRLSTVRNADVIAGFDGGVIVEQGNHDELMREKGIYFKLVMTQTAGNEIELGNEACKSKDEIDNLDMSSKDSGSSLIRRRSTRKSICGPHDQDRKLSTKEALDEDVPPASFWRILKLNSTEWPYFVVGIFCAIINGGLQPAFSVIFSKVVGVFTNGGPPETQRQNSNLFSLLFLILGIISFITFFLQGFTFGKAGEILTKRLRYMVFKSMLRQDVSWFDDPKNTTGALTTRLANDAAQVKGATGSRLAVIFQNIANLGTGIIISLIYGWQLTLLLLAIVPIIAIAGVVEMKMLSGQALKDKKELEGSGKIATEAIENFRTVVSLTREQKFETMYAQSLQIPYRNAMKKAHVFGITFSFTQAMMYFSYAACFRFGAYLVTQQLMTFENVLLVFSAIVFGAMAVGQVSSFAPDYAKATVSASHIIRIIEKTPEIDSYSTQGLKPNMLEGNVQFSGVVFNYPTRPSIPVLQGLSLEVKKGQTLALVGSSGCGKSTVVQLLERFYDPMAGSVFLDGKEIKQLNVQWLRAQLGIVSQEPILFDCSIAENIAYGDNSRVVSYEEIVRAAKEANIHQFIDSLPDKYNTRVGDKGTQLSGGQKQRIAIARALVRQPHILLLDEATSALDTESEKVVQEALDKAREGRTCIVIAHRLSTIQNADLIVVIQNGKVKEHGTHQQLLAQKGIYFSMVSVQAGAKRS

The structures appear in SMILES notation.

Sequence of ATP-dependent translocase ABCB1 (Mus musculus, UniProt P06795) (P06795 whole entry): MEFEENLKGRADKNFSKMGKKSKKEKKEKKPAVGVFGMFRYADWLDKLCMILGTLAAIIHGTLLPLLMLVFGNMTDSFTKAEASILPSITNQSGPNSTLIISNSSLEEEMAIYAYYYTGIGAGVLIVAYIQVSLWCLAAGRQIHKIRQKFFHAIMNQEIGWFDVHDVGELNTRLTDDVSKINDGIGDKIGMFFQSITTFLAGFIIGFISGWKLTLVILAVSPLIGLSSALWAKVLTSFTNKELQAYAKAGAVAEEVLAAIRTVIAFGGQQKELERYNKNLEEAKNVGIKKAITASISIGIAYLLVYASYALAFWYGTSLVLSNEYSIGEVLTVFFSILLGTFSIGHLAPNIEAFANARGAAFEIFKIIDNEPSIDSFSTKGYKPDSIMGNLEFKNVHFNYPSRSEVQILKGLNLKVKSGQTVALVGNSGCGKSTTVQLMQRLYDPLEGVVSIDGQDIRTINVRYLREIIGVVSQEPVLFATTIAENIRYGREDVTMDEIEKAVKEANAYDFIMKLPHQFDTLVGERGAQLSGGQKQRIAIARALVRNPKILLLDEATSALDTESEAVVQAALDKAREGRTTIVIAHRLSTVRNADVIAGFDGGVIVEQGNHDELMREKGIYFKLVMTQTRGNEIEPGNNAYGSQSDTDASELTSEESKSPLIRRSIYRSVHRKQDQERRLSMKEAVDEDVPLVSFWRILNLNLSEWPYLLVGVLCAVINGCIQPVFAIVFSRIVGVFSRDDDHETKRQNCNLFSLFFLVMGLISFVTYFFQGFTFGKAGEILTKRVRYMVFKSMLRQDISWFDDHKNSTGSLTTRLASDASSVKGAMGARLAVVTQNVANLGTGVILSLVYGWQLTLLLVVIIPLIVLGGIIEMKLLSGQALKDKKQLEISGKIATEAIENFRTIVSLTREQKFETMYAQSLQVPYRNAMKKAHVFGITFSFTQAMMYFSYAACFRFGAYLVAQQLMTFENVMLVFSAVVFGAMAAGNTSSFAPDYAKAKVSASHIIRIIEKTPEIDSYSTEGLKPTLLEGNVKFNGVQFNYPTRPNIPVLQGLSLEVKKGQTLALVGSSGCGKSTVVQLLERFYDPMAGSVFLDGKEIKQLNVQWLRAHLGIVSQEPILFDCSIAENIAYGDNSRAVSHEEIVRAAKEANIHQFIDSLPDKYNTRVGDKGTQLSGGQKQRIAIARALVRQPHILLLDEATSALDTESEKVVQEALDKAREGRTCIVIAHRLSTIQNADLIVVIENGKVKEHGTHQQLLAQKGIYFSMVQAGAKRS

As for `Cn1cc(C(=O)[C@@H]2CCc3nc[nH]c3C2)c2ccccc21` [RAMOSETRON], the figures for the Activity result in data set [1], in data set [2] and in data set [3] were “is not a substrate [-]”, “substrate [+]” and “substrate [+]”, respectively.
